In ChEMBL document CHEMBL1157516, “Discovery of a novel, potent and orally active series of gamma-lactams as selective NK1 antagonists” (Bioorg Med Chem Lett, 2008):

Tests used:
Meriones unguiculatus [1] = experiment: Inhibition of GR-73632-induced foot tapping in Mongolian gerbil assessed as decrease in duration of foot tapping at 1 mg/kg, po after 2 hrs; type: functional
Substance-P receptor = Substance-P receptor (Homo sapiens, UniProt P25103); experiment: Displacement of [3H]Sar-Met substance P from human recombinant NK1 receptor expressed in CHO cells; type: cell-based
Meriones unguiculatus [2] = experiment: Inhibition of GR-73632-induced foot tapping in Mongolian gerbil assessed as decrease in duration of foot tapping at 1 mg/kg, po after 6 hrs; type: functional
Meriones unguiculatus [3] = experiment: Inhibition of GR-73632-induced foot tapping in Mongolian gerbil assessed as decrease in duration of foot tapping at 1 mg/kg, po after 4 hrs; type: functional
[4] = target: T1, Substance-K receptor (Homo sapiens) (UniProt P21452); experiment: Displacement of [3H]Neurokinin A from human recombinant NK2 receptor expressed in CHO cells at 3 uM; type: cell-based
T1 sequence (whole entry): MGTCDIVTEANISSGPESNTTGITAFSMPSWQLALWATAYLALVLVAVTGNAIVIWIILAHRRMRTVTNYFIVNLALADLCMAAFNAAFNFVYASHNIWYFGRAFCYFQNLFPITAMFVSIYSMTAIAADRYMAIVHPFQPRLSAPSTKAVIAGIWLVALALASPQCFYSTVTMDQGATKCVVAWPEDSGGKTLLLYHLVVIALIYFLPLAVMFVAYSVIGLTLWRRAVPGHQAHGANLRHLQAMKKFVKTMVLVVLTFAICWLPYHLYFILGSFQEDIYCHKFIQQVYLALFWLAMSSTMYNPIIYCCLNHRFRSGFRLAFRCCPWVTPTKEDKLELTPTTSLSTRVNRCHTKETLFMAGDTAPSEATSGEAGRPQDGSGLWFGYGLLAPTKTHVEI

Neuromedin-K receptor = target: T2, Neuromedin-K receptor (Homo sapiens, UniProt P29371); experiment: Displacement of [125I]neurokinin B from human recombinant NK3 receptor expressed in CHO cells; type: cell-based
T2 sequence (P29371 whole entry): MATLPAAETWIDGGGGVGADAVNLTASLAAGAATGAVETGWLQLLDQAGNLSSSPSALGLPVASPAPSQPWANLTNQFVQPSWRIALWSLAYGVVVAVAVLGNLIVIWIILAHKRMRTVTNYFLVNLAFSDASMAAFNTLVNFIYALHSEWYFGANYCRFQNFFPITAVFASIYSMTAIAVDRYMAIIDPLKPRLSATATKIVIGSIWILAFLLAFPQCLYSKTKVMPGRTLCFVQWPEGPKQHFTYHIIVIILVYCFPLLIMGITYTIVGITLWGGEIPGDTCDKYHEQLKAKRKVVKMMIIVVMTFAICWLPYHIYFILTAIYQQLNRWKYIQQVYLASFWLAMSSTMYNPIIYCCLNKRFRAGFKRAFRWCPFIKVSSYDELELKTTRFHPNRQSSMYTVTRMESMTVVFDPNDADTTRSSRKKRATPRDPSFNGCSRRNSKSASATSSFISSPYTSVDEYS

[5] = target: T3, Neuromedin-K receptor (Homo sapiens) (UniProt P29371); experiment: Displacement of [125I]neurokinin B from human recombinant NK3 receptor expressed in CHO cells at 10 uM; type: cell-based
T3 sequence (whole entry): T2 sequence (P29371 whole entry)

Substance-P receptor, sequence (P25103 whole entry): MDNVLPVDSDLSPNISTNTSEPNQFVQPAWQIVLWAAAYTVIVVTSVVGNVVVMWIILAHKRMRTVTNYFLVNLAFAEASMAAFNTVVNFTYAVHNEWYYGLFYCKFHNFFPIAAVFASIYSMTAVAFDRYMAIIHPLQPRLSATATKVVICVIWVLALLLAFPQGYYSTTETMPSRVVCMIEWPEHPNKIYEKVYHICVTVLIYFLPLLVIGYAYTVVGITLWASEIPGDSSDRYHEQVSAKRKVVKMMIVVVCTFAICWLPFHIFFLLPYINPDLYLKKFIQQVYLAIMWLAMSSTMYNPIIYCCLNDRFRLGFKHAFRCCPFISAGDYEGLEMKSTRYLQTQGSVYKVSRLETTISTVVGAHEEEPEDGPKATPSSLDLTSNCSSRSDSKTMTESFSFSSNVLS

Work on `C[C@@H](OC[C@@]1(c2ccccc2)CC(N)C(=O)N1)c1cc(C(F)(F)F)cc(C(F)(F)F)c1` (stereo partly drawn) yielded an inhibition in vivo at 1 mg/kg (Meriones unguiculatus [1]) of 5%, a Ki (Substance-P receptor) of 0.4 nM and an inhibition in vivo at 1 mg/kg (Meriones unguiculatus [2]) of 11%. For the same molecule, the inhibition in vivo at 1 mg/kg (Meriones unguiculatus [3]) was 13%.
For `C[C@@H](OC[C@@]1(c2ccccc2)C[C@H](N2CCCC2=O)C(=O)N1)c1cc(C(F)(F)F)cc(C(F)(F)F)c1`, the inhibition in vivo at 1 mg/kg (Meriones unguiculatus [1]) was 100%, the inhibition [4] was 28% and the Ki (Substance-P receptor) was 0.2 nM. For the same molecule, the Ki (Neuromedin-K receptor) was 1250 nM, the inhibition in vivo at 1 mg/kg (Meriones unguiculatus [2]) was 98% and the inhibition in vivo at 1 mg/kg (Meriones unguiculatus [3]) was 100%.
`C[C@@H](OC[C@@]1(c2ccccc2)CCC(=O)N1)c1cc(C(F)(F)F)cc(C(F)(F)F)c1` showed an inhibition in vivo at 1 mg/kg (Meriones unguiculatus [1]) of 92%, an inhibition [4] of 0.1% and a Ki (Substance-P receptor) of 0.6 nM. The Ki (Neuromedin-K receptor) was 3810 nM, the inhibition in vivo at 1 mg/kg (Meriones unguiculatus [2]) was 47% and the inhibition in vivo at 1 mg/kg (Meriones unguiculatus [3]) was 78%.
With `C[C@@H](OC[C@@]1(c2ccccc2)C[C@@H](NS(C)(=O)=O)C(=O)N1)c1cc(C(F)(F)F)cc(C(F)(F)F)c1` the inhibition in vivo at 1 mg/kg (Meriones unguiculatus [1]) was 0%, the Ki (Substance-P receptor) was 2.6 nM and the inhibition in vivo at 1 mg/kg (Meriones unguiculatus [2]) was 0%. It also gave an inhibition in vivo at 1 mg/kg (Meriones unguiculatus [3]) of 15%.
In the case of `C[C@@H](OC[C@@]1(c2ccccc2)C[C@@H](N2CCCC2=O)C(=O)N1)c1cc(C(F)(F)F)cc(C(F)(F)F)c1`, the inhibition in vivo at 1 mg/kg (Meriones unguiculatus [1]) is reported as 49%, the Ki (Substance-P receptor) is reported as 0.5 nM and the inhibition in vivo at 1 mg/kg (Meriones unguiculatus [2]) is reported as 39%. For the same molecule, the inhibition in vivo at 1 mg/kg (Meriones unguiculatus [3]) was 46%.
`C[C@@H](OC[C@@]1(c2ccccc2)C[C@H](NS(C)(=O)=O)C(=O)N1)c1cc(C(F)(F)F)cc(C(F)(F)F)c1` showed an inhibition in vivo at 1 mg/kg (Meriones unguiculatus [1]) of 10%, a Ki (Substance-P receptor) of 0.6 nM and an inhibition in vivo at 1 mg/kg (Meriones unguiculatus [2]) of 43%. It also gave an inhibition in vivo at 1 mg/kg (Meriones unguiculatus [3]) of 58%.
`C[C@@H](OC[C@@]1(c2ccccc2)C[C@@H](N2CCCCC2=O)C(=O)N1)c1cc(C(F)(F)F)cc(C(F)(F)F)c1` showed an inhibition in vivo at 1 mg/kg (Meriones unguiculatus [1]) of 20%, a Ki (Substance-P receptor) of 0.2 nM and an inhibition in vivo at 1 mg/kg (Meriones unguiculatus [2]) of 56%. It also gave an inhibition in vivo at 1 mg/kg (Meriones unguiculatus [3]) of 26%.
Work on `C[C@H]1C[C@@](CO[C@H](C)c2cc(C(F)(F)F)cc(C(F)(F)F)c2)(c2ccccc2)NC1=O` yielded an inhibition in vivo at 1 mg/kg (Meriones unguiculatus [1]) of 77%, a Ki (Substance-P receptor) of 0.7 nM and an inhibition in vivo at 1 mg/kg (Meriones unguiculatus [2]) of 44%. It also gave an inhibition in vivo at 1 mg/kg (Meriones unguiculatus [3]) of 85%.
Molecule `C[C@@H](OC[C@@]1(c2ccccc2)C[C@H](N2CCCC2)C(=O)N1)c1cc(C(F)(F)F)cc(C(F)(F)F)c1` has an inhibition in vivo at 1 mg/kg (Meriones unguiculatus [1]) of 78%, a Ki (Substance-P receptor) of 0.4 nM and an inhibition in vivo at 1 mg/kg (Meriones unguiculatus [2]) of 45%. For the same molecule, the inhibition in vivo at 1 mg/kg (Meriones unguiculatus [3]) was 60%.
`C[C@@H](OC[C@@]1(c2ccccc2)C[C@H](N2CCCCC2=O)C(=O)N1)c1cc(C(F)(F)F)cc(C(F)(F)F)c1` showed an inhibition in vivo at 1 mg/kg (Meriones unguiculatus [1]) of 74%, a Ki (Substance-P receptor) of 0.2 nM and an inhibition in vivo at 1 mg/kg (Meriones unguiculatus [2]) of 63%. The inhibition in vivo at 1 mg/kg (Meriones unguiculatus [3]) was 37%.
`CC(=O)N[C@@H]1C[C@@](CO[C@H](C)c2cc(C(F)(F)F)cc(C(F)(F)F)c2)(c2ccccc2)NC1=O` gave an inhibition in vivo at 1 mg/kg (Meriones unguiculatus [1]) of 80%, a Ki (Substance-P receptor) of 0.9 nM and an inhibition in vivo at 1 mg/kg (Meriones unguiculatus [2]) of 71%. The inhibition in vivo at 1 mg/kg (Meriones unguiculatus [3]) was 97%.
In the case of `C[C@@H](OC[C@@]1(c2ccccc2)CC(O)C(=O)N1)c1cc(C(F)(F)F)cc(C(F)(F)F)c1` (stereo partly drawn), the inhibition in vivo at 1 mg/kg (Meriones unguiculatus [1]) is reported as 27%, the Ki (Substance-P receptor) is reported as 0.5 nM and the inhibition in vivo at 1 mg/kg (Meriones unguiculatus [2]) is reported as 1%. For the same molecule, the inhibition in vivo at 1 mg/kg (Meriones unguiculatus [3]) was 35%.
`CC(=O)N[C@H]1C[C@@](CO[C@H](C)c2cc(C(F)(F)F)cc(C(F)(F)F)c2)(c2ccccc2)NC1=O` gave an inhibition in vivo at 1 mg/kg (Meriones unguiculatus [1]) of 94%, an inhibition [4] of 1.4% and a Ki (Substance-P receptor) of 0.3 nM. For the same molecule, the inhibition in vivo at 1 mg/kg (Meriones unguiculatus [2]) was 91%, the inhibition in vivo at 1 mg/kg (Meriones unguiculatus [3]) was 94% and the inhibition [5] was 43%.
Molecule `CCC(=O)N[C@H]1C[C@@](CO[C@H](C)c2cc(C(F)(F)F)cc(C(F)(F)F)c2)(c2ccccc2)NC1=O` has an inhibition in vivo at 1 mg/kg (Meriones unguiculatus [1]) of 84%, a Ki (Substance-P receptor) of 0.3 nM and an inhibition in vivo at 1 mg/kg (Meriones unguiculatus [2]) of 90%. For the same molecule, the inhibition in vivo at 1 mg/kg (Meriones unguiculatus [3]) was 97%.
With `CCC(=O)N[C@@H]1C[C@@](CO[C@H](C)c2cc(C(F)(F)F)cc(C(F)(F)F)c2)(c2ccccc2)NC1=O` the inhibition in vivo at 1 mg/kg (Meriones unguiculatus [1]) was 83%, the Ki (Substance-P receptor) was 0.3 nM and the inhibition in vivo at 1 mg/kg (Meriones unguiculatus [2]) was 19%. It also gave an inhibition in vivo at 1 mg/kg (Meriones unguiculatus [3]) of 16%.
`C[C@@H](OC[C@@]1(c2ccccc2)CNC(=O)N1)c1cc(C(F)(F)F)cc(C(F)(F)F)c1` showed an inhibition in vivo at 1 mg/kg (Meriones unguiculatus [1]) of 35%, an inhibition in vivo at 1 mg/kg (Meriones unguiculatus [2]) of 48% and an inhibition in vivo at 1 mg/kg (Meriones unguiculatus [3]) of 57%.
`C[C@@H]1C[C@@](CO[C@H](C)c2cc(C(F)(F)F)cc(C(F)(F)F)c2)(c2ccccc2)NC1=O` gave an inhibition in vivo at 1 mg/kg (Meriones unguiculatus [1]) of 11%, a Ki (Substance-P receptor) of 2 nM and an inhibition in vivo at 1 mg/kg (Meriones unguiculatus [2]) of 36%. It also gave an inhibition in vivo at 1 mg/kg (Meriones unguiculatus [3]) of 2%.
